Assay results as given in US4029805A, “Semisynthetic penicillins” (Hoffmann-La Roche Inc., priority 1976, dated 1977).
Counter-ions that a name gives are not always drawn. Like-named read-outs stand apart in the source and are kept apart here.

What was measured:
S. schottmuelleri = assay: Curative dose against systemic S. schottmuelleri infection; format: in vivo, mice; conditions: Mus musculus, read-out: CD50 (the source's name)
S. pyogenes = assay: Curative dose against systemic S. pyogenes infection; format: in vivo, mice; conditions: Streptococcus pyogenes, in Mus musculus, read-out: CD50 (the source's name)
[1] = Stability in aqueous solution at room temperature, microbiological assay using B. subtilis; conditions: water
Protocol: To illustrate the relative stability of the compounds of this invention in aqueous solution at room temperature the sodium salts of the compounds were tested as 20% by weight aqueous solutions for activity by microbiological assay using B. subtilis as the test organism and compared to 10% and 20% aqueous solutions of amoxicillin sodium salt and 10% aqueous solution of the acetone derivative of amoxicillin.

K. pneumoniae = assay: Curative dose against systemic K. pneumoniae infection; format: in vivo, mice; conditions: Klebsiella pneumoniae, in Mus musculus, read-out: CD50 (the source's name)
E. coli [2] = assay: Curative dose against systemic E. coli infection; format: in vivo, mice; conditions: Escherichia coli, in Mus musculus, read-out: CD50 (the source's name)
D. pneumoniae = assay: Curative dose against systemic D. pneumoniae infection; format: in vivo, mice; conditions: Streptococcus pneumoniae, in Mus musculus, read-out: CD50 (the source's name)
S. aureus = assay: Curative dose against systemic S. aureus infection; format: in vivo, mice; conditions: Staphylococcus aureus, in Mus musculus, read-out: CD50 (the source's name)
physchem = format: physicochemical; conditions: 5% dextrose solution, read-out: antibacterial activity retained in a 24 hour period
Protocol: The antibacterial activity retained in a 24 hour period by the acetaldehyde derivative when dissolved in 5% dextrose solutions at 0.5 and 1.0% concentration is 83% and 80% respectively. The sodium salt of amoxicillin retains less than 40% activity under the same conditions.

S. typhosa [3] = assay: Curative dose against systemic S. typhosa infection; format: in vivo, mice; conditions: Mus musculus, po, read-out: CD50 (the source's name)
Protocol: (§1) In order to illustrate the relative activity of the compounds of this invention as compared to amoxicillin, the compounds, represented by the acetaldehyde derivative, were tested orally against systemic bacterial infections of mice with the following results. The CD50 is the curative dose in 50% of the animals treated against a challenge organism.

E. coli [4] = assay: Curative dose against systemic E. coli infection; format: in vivo, mice; conditions: Escherichia coli, in Mus musculus, po
Protocol: as §1

S. typhosa [5] = assay: Curative dose against systemic S. typhosa infection; format: in vivo, mice; conditions: Mus musculus, sc, read-out: CD50 (the source's name)
[6] = Table 3(b), po, acetaldehyde derivative comparison
[7] = Table 3(b), sc, acetaldehyde derivative comparison
[8] = Table 3(b), acetaldehyde derivative comparison
[9] = po, butyraldehyde derivative comparison
[10] = sc, butyraldehyde derivative comparison
[11] = butyraldehyde derivative comparison

## CC1N[C@H](c2ccc(O)cc2)C(=O)N1[C@@H]1C(=O)N2[C@@H]1SC(C)(C)[C@@H]2C(=O)O (stereo partly drawn) [Acetaldehyde derivative]
S. schottmuelleri; [6]
  ED50: 6.4 mg/kg
S. schottmuelleri; [7]
  ED50: 3.4 mg/kg
In vivo; ip
  LD50: 9200 mg/kg
In vivo; po
  LD50: > 10000 mg/kg
In vivo; sc
  LD50: > 10000 mg/kg
S. pyogenes; [6]
  ED50: 1.7 mg/kg
S. pyogenes; [7]
  ED50: < 0.05 mg/kg
[1]
  remaining at 1 h: 100%
  remaining at 2 h: 99%
  remaining at 4 h: 99%
  remaining at 6 h: 98%
  remaining at 6.5 h: 98%
  remaining at 24 h: 94%
K. pneumoniae; [6]
  ED50: 17 mg/kg
K. pneumoniae; [7]
  ED50: 11 mg/kg
E. coli [2]; sc, Table 3(b), sc, acetaldehyde derivative comparison
  ED50: 6.9 mg/kg
D. pneumoniae; [6]
  ED50: 12 mg/kg
D. pneumoniae; [7]
  ED50: 0.76 mg/kg
S. aureus; [6]
  ED50: 0.77 mg/kg
S. aureus; [7]
  ED50: 1.3 mg/kg
physchem; 0.5% concentration
  remaining at 24 h: 83%
physchem; 1.0% concentration
  remaining at 24 h: 80%
S. typhosa [3]; [8]
  ED50: 8.8 mg/kg
E. coli [4]; Table 3(b), acetaldehyde derivative comparison, read-out: CD50 (the source's name)
  ED50: 4.6 mg/kg
E. coli [4]; read-out: CD50, Table 2, PO, mice
  ED50: 5 mg/kg
S. typhosa [5]; [8]
  ED50: 6.5 mg/kg

## CC1(C)S[C@@H]2[C@H](NC(=O)[C@H](N)c3ccc(O)cc3)C(=O)N2[C@H]1C(=O)O [Amoxicillin sodium salt]
[1]
  remaining at 1 h: 100%
  remaining at 2 h: 91%
  remaining at 4 h: 65%
  remaining at 6 h: 59%
  remaining at 6.5 h: 58%
  remaining at 24 h: 38%
physchem; 5% dextrose solutions, same conditions (0.5 and 1.0%)
  remaining at 24 h: < 40%

## CCCC1N[C@H](c2ccc(O)cc2)C(=O)N1[C@@H]1C(=O)N2[C@@H]1SC(C)(C)[C@@H]2C(=O)O (stereo partly drawn) [Butyraldehyde derivative]
S. schottmuelleri; [9]
  ED50: 5.7 mg/kg
S. schottmuelleri; [10]
  ED50: 3.2 mg/kg
In vivo; ip
  LD50: 7270 mg/kg
In vivo; po
  LD50: > 10000 mg/kg
In vivo; sc
  LD50: 10000 mg/kg
S. pyogenes; [9]
  ED50: < 0.05 mg/kg
S. pyogenes; [10]
  ED50: 0.01 mg/kg
[1]
  remaining at 1 h: 95%
  remaining at 2 h: 83%
  remaining at 6 h: 83%
  remaining at 24 h: 70%
K. pneumoniae; [9]
  ED50: 46 mg/kg
K. pneumoniae; [10]
  ED50: 16 mg/kg
E. coli [2]; [9]
  ED50: 12 mg/kg
E. coli [2]; [10]
  ED50: 3.9 mg/kg
D. pneumoniae; [9]
  ED50: 2.1 mg/kg
D. pneumoniae; [10]
  ED50: 2.5 mg/kg
S. aureus; [9]
  ED50: 0.2 mg/kg
S. aureus; [10]
  ED50: 0.11 mg/kg
S. typhosa [3]; [11]
  ED50: 2.9 mg/kg
S. typhosa [5]; [11]
  ED50: 0.85 mg/kg
